# Measured values as given in patent publication US8552220B2, “Therapeutic agent for Alzheimer's disease” (Tokyo Institute of Technology, priority 2008, dated 2013).
row,melting point [°C],SMILES
1,180 to 185,"CN(C)c1ccc(/C=C/C(=O)CC(=O)/C=C/c2ccc3cc[nH]c3c2)c(Cl)c1 [CU584, (1E,6E)-1-(2-chloro-4-dimethylaminophenyl)-7-(1H-indol-6-yl)hepta-1,6-diene-3,5-dione]"
2,196 to 205,"O=C(/C=C/c1ccc(O)cc1)CC(=O)/C=C/c1ccc(O)cc1Br [CU671, (1E,6E)-1-(2-bromo-4-hydroxyphenyl)-7-(4-hydroxyphenyl)hepta-1,6-diene-3,5-dione]"
3,255 to 259,"O=C(/C=C/c1ccc(O)cc1)CC(=O)/C=C/c1cc(O)c(Br)cc1Br [CU544, (1E,6E)-1-(2,4-dibromo-5-hydroxyphenyl)-7-(4-hydroxyphenyl)hepta-1,6-diene-3,5-dione]"
4,170 to 173,"CN(C)CCOc1ccc(/C=C/C(=O)CC(=O)/C=C/c2ccc(O)cc2)c(Cl)c1 [CU551, (1E,6E)-1-[2-chloro-4-(2-dimethylaminoethoxy)phenyl]-7-(4-hydroxyphenyl)hepta-1,6-diene-3,5-dione]"
5,101 to 104,"O=C(/C=C/c1cc(O)ccc1Br)CC(=O)/C=C/c1cc(O)ccc1-c1ccccc1 [CU616, (1E,6E)-1-(2-bromo-5-hydroxyphenyl)-7-(4-hydroxybiphenyl-2-yl)hepta-1,6-diene-3,5-dione]"
6,187 to 192,"COc1cc(O)ccc1/C=C/C(=O)CC(=O)/C=C/c1ccc(N(C)C)cc1Cl [CU581, (1E,6E)-1-(2-chloro-4-dimethylaminophenyl)-7-(4-hydroxy-2-methoxyphenyl)hepta-1,6-diene-3,5-dione]"
7,92 to 98,"COc1cc(O)ccc1/C=C/C(=O)CC(=O)/C=C/c1cc(O)ccc1Br [CU561, (1E,6E)-1-(2-bromo-5-hydroxyphenyl)-7-(4-hydroxy-2-methoxyphenyl)hepta-1,6-diene-3,5-dione]"
8,196 to 201,"CN(C)c1ccc(/C=C/C(=O)CC(=O)/C=C/c2ccc3cc[nH]c3c2)c([N+](=O)[O-])c1 [CU592, (1E,6E)-1-(4-dimethylamino-2-nitrophenyl)-7-(1H-indol-6-yl)hepta-1,6-diene-3,5-dione]"
9,205 to 209,"O=C(/C=C/c1ccc(O)cc1)CC(=O)/C=C/c1cc(O)ccc1F [CU621, (1E,6E)-1-(2-fluoro-5-hydroxyphenyl)-7-(4-hydroxyphenyl)hepta-1,6-diene-3,5-dione]"
10,99 to 105,"CCOC(=O)Cn1cc(-c2ccccc2/C=C/C(=O)CC(=O)/C=C/c2ccc(O)cc2)nn1 [CU646, (1E,6E)-1-[2-(1-ethoxycarbonylmethyl-1H-1,2,3-triazol-4-yl)phenyl]-7-(4-hydroxyphenyl)hepta-1,6-diene-3,5-dione]"
11,224 to 229,"COc1cc(Br)c(/C=C/C(=O)CC(=O)/C=C/c2ccc(O)cc2)cc1O [CU543, (1E,6E)-1-(2-bromo-5-hydroxy-4-methoxyphenyl)-7-(4-hydroxyphenyl)hepta-1,6-diene-3,5-dione]"
12,93 to 96,"CCOC(=O)c1cnnn1-c1ccccc1/C=C/C(=O)CC(=O)/C=C/c1ccc(O)cc1 [CU626, (1E,6E)-1-[2-(5-ethoxycarbonyl-1H-1,2,3-triazol-1-yl)phenyl]-7-(4-hydroxyphenyl)hepta-1,6-diene-3,5-dione]"
13,183 to 186,"COc1cc(O)ccc1/C=C/C(=O)CC(=O)/C=C/c1cc(OCc2ccccc2)ccc1[N+](=O)[O-] [CU594, (1E,6E)-1-(5-benzyloxy-2-nitrophenyl)-7-(4-hydroxy-2-methoxyphenyl)hepta-1,6-diene-3,5-dione]"
14,180 to 188,"O=C(/C=C/c1ccc(O)cc1)CC(=O)/C=C/c1ccccc1-c1ccccc1 [CU472, (1E,6E)-1-(biphenyl-2-yl)-7-(4-hydroxyphenyl)hepta-1,6-diene-3,5-dione]"
15,204 to 207,"O=C(/C=C/c1ccc2cc[nH]c2c1)CC(=O)/C=C/c1cc(O)ccc1[N+](=O)[O-] [CU596, (1E,6E)-1-(5-hydroxy-2-nitrophenyl)-7-(1H-indol-6-yl)hepta-1,6-diene-3,5-dione]"
16,245 to 250,CN(C)c1ccc(/C=C/C(=O)CC(=O)/C=C/c2ccc(N(C)C)cc2[N+](=O)[O-])c([N+](=O)[O-])c1
17,175 to 180,"COCOc1ccc([N+](=O)[O-])c(/C=C/C(=O)CC(=O)/C=C/c2ccc(O)cc2)c1 [CU649, (1E,6E)-1-(4-hydroxyphenyl)-7-[5-(methoxymethoxy)-2-nitrophenyl]hepta-1,6-diene-3,5-dione]"
18,95 to 101,"O=C(/C=C/c1ccc(O)cc1)CC(=O)/C=C/c1ccccc1-c1cccc2ccccc12 [CU528, (1E,6E)-1-(4-hydroxyphenyl)-7-[2-(naphthalen-1-yl)phenyl]hepta-1,6-diene-3,5-dione]"
19,237 to 242,"COc1cc(/C=C/C(=O)CC(=O)/C=C/c2ccc(O)cc2)c(Br)cc1O [CU539, (1E,6E)-1-(2-bromo-4-hydroxy-5-methoxyphenyl)-7-(4-hydroxyphenyl)hepta-1,6-diene-3,5-dione]"
20,157 to 161,"O=C(/C=C/c1ccc(O)cc1)CC(=O)/C=C/c1cc(OCc2ccc(Cl)cc2Cl)ccc1[N+](=O)[O-] [CU493, (1E,6E)-1-[5-(2,4-dichlorobenzyloxy)-2-nitrophenyl]-7-(4-hydroxyphenyl)hepta-1,6-diene-3,5-dione]"

row,melting point [°C],SMILES
1,173 to 177,"Cc1ccccc1-c1ccc(O)cc1/C=C/C(=O)CC(=O)/C=C/c1ccc(O)cc1 [CU642, (1E,6E)-1-(4-hydroxy-2′-methylbiphenyl-2-yl)-7-(4-hydroxyphenyl)hepta-1,6-diene-3,5-dione]"
2,136 to 142,"CN(C)c1ccc(/C=C/C(=O)CC(=O)CCc2ccc(O)cc2)c([N+](=O)[O-])c1 [CU523, (E)-1-(4-dimethylamino-2-nitrophenyl)-7-(4-hydroxyphenyl)hept-1-ene-3,5-dione]"
3,120 to 130,"COc1ccc(/C=C/C(=O)CC(=O)/C=C/c2ccc(O)cc2Cl)cc1O [CU130, (1E,6E)-1-(2-chloro-4-hydroxyphenyl)-7-(3-hydroxy-4-methoxyphenyl)hepta-1,6-diene-3,5-dione]"
4,182 to 186,"O=C(/C=C/c1ccc2cc[nH]c2c1)CC(=O)/C=C/c1ccc(O)cc1Cl [CU601, (1E,6E)-1-(2-chloro-4-hydroxyphenyl)-7-(1H-indol-6-yl)hepta-1,6-diene-3,5-dione]"
5,209 to 214,"CN(C)c1ccc(/C=C/C(=O)CC(=O)/C=C/c2cc(O)ccc2Br)c(Cl)c1 [CU609, (1E,6E)-1-(2-bromo-5-hydroxyphenyl)-7-(2-chloro-4-dimethylaminophenyl)hepta-1,6-diene-3,5-dione]"
6,66 to 70,"O=C(/C=C/c1cc(O)ccc1Br)CC(=O)/C=C/c1ccccc1C(F)(F)F [CU615, (1E,6E)-1-(2-bromo-5-hydroxyphenyl)-7-(2-trifluoromethylphenyl)hepta-1,6-diene-3,5-dione]"
7,181 to 186,"O=C(/C=C/c1ccc2cc[nH]c2c1)CC(=O)/C=C/c1cc(OCc2ccccc2)ccc1[N+](=O)[O-] [CU588, (1E,6E)-1-(5-benzyloxy-2-nitrophenyl)-7-(1H-indol-6-yl)hepta-1,6-diene-3,5-dione]"
8,180 to 183,"O=C(/C=C/c1ccc(O)cc1)CC(=O)/C=C/c1cc(OCc2c(F)cccc2Cl)ccc1[N+](=O)[O-] [CU492, (1E,6E)-1-[5-(2-chloro-6-fluorobenzyloxy)-2-nitrophenyl]-7-(4-hydroxyphenyl)hepta-1,6-diene-3,5-dione]"
9,145 to 150,"COC(=O)c1ccccc1/C=C/C(=O)CC(=O)/C=C/c1ccc(O)cc1 [CU478, (1E,6E)-1-(4-hydroxyphenyl)-7-[2-(methoxycarbonyl)phenyl]hepta-1,6-diene-3,5-dione]"
10,239 to 243,"O=C(/C=C/c1cc(O)ccc1Br)CC(=O)/C=C/c1cc(O)ccc1Br [CU614, (1E,6E)-1,7-bis(2-bromo-5-hydroxyphenyl)hepta-1,6-diene-3,5-dione]"
11,168 to 174,"O=C(/C=C/c1ccc(O)cc1)CC(=O)/C=C/c1cc(C(F)(F)F)ccc1F [CU473, (1E,6E)-1-(2-fluoro-5-trifluoromethylphenyl)-7-(4-hydroxyphenyl)hepta-1,6-diene-3,5-dione]"
12,111 to 115,"CCOc1ccccc1-c1ccc(O)cc1/C=C/C(=O)CC(=O)/C=C/c1ccc(O)cc1 [CU643, (1E,6E)-1-(2′-ethoxy-4-hydroxybiphenyl-2-yl)-7-(4-hydroxyphenyl)hepta-1,6-diene-3,5-dione]"
13,103 to 109,"O=C(/C=C/c1ccc(O)cc1)CC(=O)/C=C/c1ccccc1-c1cn(Cc2ccccc2)nn1 [CU644, (1E,6E)-1-[2-(1-benzyl-1H-1,2,3-triazol-4-yl)phenyl]-7-(4-hydroxyphenyl)hepta-1,6-diene-3,5-dione]"
14,147 to 152,"COc1cc(/C=C/C(=O)CC(=O)/C=C/c2cc(O)ccc2[N+](=O)[O-])ccc1O [CU132, (1E,6E)-1-(4-hydroxy-3-methoxyphenyl)-7-(5-hydroxy-2-nitrophenyl)hepta-1,6-diene-3,5-dione]"
15,210 to 218,"CN(C)C(=O)c1ccccc1/C=C/C(=O)CC(=O)/C=C/c1ccc(O)cc1 [CU479, (1E,6E)-1-[2-(dimethylaminocarbonyl)phenyl]-7-(4-hydroxyphenyl)hepta-1,6-diene-3,5-dione]"
16,238 to 241,"CN(C)c1ccc(/C=C/C(=O)CC(=O)/C=C/c2ccc(N(C)C)cc2Cl)c(Cl)c1 [CU412, (1E,6E)-1,7-bis(2-chloro-4-dimethylaminophenyl)hepta-1,6-diene-3,5-dione]"
17,215 to 221,"O=C(/C=C/c1ccc(O)cc1)CC(=O)/C=C/c1cc(O)ccc1-c1cccc2ccccc12 [CU538, (1E,6E)-1-[5-hydroxy-2-(naphthalen-1-yl)phenyl]-7-(4-hydroxyphenyl)hepta-1,6-diene-3,5-dione]"
18,177 to 203,"O=C(/C=C/c1ccc(O)cc1)CC(=O)/C=C/c1cc(Br)ccc1F [CU466, (1E,6E)-1-(5-bromo-2-fluorophenyl)-7-(4-hydroxyphenyl)hepta-1,6-diene-3,5-dione]"
19,185 to 192,"COc1cc(/C=C/C(=O)CC(=O)/C=C/c2ccc(O)cc2Cl)ccc1O [CU129, (1E,6E)-1-(2-chloro-4-hydroxyphenyl)-7-(4-hydroxy-3-methoxyphenyl)hepta-1,6-diene-3,5-dione]"
